Values after ≈ are worked out from the molar mass of the structure shown. Values joined by “and” are separate entries in the source; they are usually repeats but may differ in a detail not shown here. Identical values can stand only once.
Tests used:
[1] = reproduction developmental; clinical signs
Apis mellifera = conditions: acute, mortality
Canidae = conditions: Dog Other, hematological
Daphnia magna = conditions: chronic/long-term; duration: 21 days; growth
Oncorhynchus mykiss = conditions: acute; mortality
Pimephales promelas = conditions: chronic/long-term; other
Tagia sp. = conditions: chronic/long-term; reproduction
Typhlodromus pyri = experiment: LR50; higher = less toxic; conditions: not reported; mortality

CN(C)C(=S)SSC(=S)N(C)C [Bis(dimethylaminothiocarbonyl) disulfide]
NOAEL [1]: 1.6 mg/kg-day | LD50 (Apis mellifera; dermal): > 100 µg/piece | LD50 (Apis mellifera; oral, unspecified): > 107 µg/piece | NOAEL (Canidae; chronic, duration: 1 years): 0.84 mg/kg-day | NOAEL (Canidae; subchronic, duration: 90 days): 2 mg/kg-day | LD50 (Colinus virginianus; acute, oral, mortality): 930 mg/kg-day | NOEC (Colinus virginianus; reproduction developmental): 37.5 mg/kg-day | NOEC (Daphnia magna): 20 µg/L | LC50 (Oncorhynchus mykiss): 0.171 µg/mL (≈ 0.711 µM) | NOEC (Pimephales promelas): 1.1 µg/L | LD50 (Rattus norvegicus; acute, oral, mortality): 1800 mg/kg-day | NOAEL (Rattus norvegicus; chronic): 1.6 mg/kg-day | NOAEL (Rattus norvegicus; chronic, duration: 2 years, body weight): 1.5 mg/kg-day | NOAEL (Rattus norvegicus; reproduction developmental, body weight): < 7.5 mg/kg-day and 3 mg/kg-day | NOEC (Tagia sp.): 8.45 mg/kg | LR50 (Typhlodromus pyri): 511 g/ha

— EPA's ToxValDB 9.5 (doi:10.2903/j.efsa.2017.4700)
